The values below come from ChEMBL document CHEMBL5696442, “Discovery of type II inhibitors of TGFβ-activated kinase 1 (TAK1) and mitogen-activated protein kinase kinase kinase kinase 2 (MAP4K2)” (J Med Chem, 2015).

The source made the active and inactive calls. The calls are words filed in the database; no cut-off is given here.

Experiment [1] addresses T1, Phosphatidylinositol 5-phosphate 4-kinase type-2 alpha (Homo sapiens) (UniProt P48426).
T1 sequence (whole entry): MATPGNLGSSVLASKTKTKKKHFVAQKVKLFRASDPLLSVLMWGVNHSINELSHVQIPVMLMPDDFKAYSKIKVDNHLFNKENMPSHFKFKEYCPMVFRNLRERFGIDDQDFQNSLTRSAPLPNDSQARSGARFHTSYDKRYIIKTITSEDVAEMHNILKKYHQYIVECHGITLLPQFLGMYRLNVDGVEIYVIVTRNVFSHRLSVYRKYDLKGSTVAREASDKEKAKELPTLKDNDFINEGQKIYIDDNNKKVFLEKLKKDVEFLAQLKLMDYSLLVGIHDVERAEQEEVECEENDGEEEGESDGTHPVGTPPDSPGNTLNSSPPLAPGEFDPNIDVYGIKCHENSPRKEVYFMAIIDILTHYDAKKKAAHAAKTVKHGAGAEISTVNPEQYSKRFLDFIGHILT
Nature of the experiment: Inhibition of PIP4K2A ATP labeling site harbouring TVKHGAGAEISTVNPEQYSK in human Huh-7 cell lysate at 1 uM by KiNativ Profiling analysis relative to control. Type of experiment: subcellular.

Experiment [2] has as its target Serine/threonine-protein kinase SIK1 (Homo sapiens) (UniProt P57059). In words: Inhibition of SIK Lys2 labeling site in human Huh-7 cell lysate at 1 uM by KiNativ Profiling analysis relative to control. Type of experiment: subcellular.
Experiment [3] deals with Cyclin-dependent kinase 13 (Homo sapiens) (UniProt Q14004). In words: Inhibition of CHED Lys2 labeling site harbouring DIKCSNILLNNR in human Huh-7 cell lysate at 1 uM by KiNativ Profiling analysis relative to control. Type of experiment: subcellular.
In experiment [4] the target is Mitogen-activated protein kinase kinase kinase 4 (Homo sapiens) (UniProt Q9Y6R4). In words: Inhibition of MAP3K4 Lys2 labeling site in human Huh-7 cell lysate at 1 uM by KiNativ Profiling analysis relative to control. Type of experiment: subcellular.
Mitogen-activated protein kinase kinase kinase 4 (Homo sapiens), sequence (Q9Y6R4 whole entry): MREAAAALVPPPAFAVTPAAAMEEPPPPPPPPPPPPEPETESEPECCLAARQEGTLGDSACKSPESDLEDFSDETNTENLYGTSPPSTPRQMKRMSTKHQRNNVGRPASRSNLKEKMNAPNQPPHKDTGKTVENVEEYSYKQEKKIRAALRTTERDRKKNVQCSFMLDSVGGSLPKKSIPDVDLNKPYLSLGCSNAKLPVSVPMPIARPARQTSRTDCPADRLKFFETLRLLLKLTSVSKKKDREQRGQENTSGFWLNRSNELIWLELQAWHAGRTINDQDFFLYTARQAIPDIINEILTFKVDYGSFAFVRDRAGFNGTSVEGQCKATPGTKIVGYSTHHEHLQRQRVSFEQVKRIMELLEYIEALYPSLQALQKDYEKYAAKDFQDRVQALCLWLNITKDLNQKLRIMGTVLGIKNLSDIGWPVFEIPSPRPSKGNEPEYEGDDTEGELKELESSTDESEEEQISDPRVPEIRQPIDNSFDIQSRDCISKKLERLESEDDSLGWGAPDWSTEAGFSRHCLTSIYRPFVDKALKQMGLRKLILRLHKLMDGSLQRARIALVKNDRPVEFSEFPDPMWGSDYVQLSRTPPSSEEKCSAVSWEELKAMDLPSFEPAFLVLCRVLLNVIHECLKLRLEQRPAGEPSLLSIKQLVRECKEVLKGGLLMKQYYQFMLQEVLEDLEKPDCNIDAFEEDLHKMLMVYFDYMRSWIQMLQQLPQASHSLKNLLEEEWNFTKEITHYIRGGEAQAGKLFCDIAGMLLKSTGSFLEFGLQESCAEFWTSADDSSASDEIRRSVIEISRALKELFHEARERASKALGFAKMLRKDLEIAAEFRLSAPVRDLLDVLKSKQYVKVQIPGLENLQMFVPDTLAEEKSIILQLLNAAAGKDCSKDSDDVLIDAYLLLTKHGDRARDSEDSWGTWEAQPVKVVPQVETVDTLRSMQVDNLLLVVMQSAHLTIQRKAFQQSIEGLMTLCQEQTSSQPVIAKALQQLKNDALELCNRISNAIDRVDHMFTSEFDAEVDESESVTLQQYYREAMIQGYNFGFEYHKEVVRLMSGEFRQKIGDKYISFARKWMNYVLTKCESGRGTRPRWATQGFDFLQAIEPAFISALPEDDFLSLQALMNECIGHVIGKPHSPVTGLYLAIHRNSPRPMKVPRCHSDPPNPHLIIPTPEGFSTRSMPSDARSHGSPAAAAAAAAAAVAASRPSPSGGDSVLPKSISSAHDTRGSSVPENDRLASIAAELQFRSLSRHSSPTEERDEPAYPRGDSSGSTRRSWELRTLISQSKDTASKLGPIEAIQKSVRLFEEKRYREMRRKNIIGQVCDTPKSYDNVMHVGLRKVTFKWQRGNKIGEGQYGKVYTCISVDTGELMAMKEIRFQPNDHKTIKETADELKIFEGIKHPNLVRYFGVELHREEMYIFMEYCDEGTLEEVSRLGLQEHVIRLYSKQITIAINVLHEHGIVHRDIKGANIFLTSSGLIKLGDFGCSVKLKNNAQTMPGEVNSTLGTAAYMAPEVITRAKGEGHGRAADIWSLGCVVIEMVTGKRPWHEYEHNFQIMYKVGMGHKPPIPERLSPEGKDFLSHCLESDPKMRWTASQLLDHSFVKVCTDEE
Experiment [5] concerns the target Activated CDC42 kinase 1 (Homo sapiens) (UniProt Q07912). Nature of the experiment: Inhibition of TNK2 (unknown origin) at 1 uM by Ambit Kinomescan binding assay relative to control.
For experiment [6], the target named is T2, NUAK family SNF1-like kinase 2 (Homo sapiens) (UniProt Q9H093).
T2 sequence (whole entry): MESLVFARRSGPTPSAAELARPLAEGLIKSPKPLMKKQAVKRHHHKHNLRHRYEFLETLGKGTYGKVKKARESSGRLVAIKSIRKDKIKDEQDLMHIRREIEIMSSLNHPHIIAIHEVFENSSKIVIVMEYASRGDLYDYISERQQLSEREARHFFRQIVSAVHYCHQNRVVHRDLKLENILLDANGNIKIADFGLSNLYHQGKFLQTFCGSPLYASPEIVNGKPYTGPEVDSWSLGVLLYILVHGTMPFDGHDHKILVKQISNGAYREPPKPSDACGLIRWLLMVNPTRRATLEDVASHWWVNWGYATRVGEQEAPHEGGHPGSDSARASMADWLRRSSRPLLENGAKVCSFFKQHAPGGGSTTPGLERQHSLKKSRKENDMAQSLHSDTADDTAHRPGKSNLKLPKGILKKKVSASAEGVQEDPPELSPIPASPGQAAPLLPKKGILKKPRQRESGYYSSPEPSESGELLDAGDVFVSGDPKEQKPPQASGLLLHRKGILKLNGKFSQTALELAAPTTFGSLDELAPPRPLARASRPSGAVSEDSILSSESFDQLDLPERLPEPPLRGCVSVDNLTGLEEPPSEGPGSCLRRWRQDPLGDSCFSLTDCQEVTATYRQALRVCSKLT
In words: Inhibition of SNARK (unknown origin) at 1 uM by Ambit Kinomescan binding assay relative to control.

Experiment [7] addresses Serine/threonine-protein kinase tousled-like 2 (Homo sapiens) (UniProt Q86UE8). Nature of the experiment: Inhibition of TLK2 (unknown origin) at 1 uM by Ambit Kinomescan binding assay relative to control.
Experiment [8] addresses Phosphatidylinositol 4,5-bisphosphate 3-kinase catalytic subunit beta isoform (Homo sapiens) (UniProt P42338). Nature of the experiment: Inhibition of PIK3CB ATP labeling site in human A-375 cells at 5 uM by KiNativ Profiling analysis relative to control. Type of experiment: cell-based.
Experiment [9] concerns the target Cyclin-dependent kinase 4 (Homo sapiens) (UniProt P11802). Nature of the experiment: Inhibition of CDK4 Lys2 labeling site in human A-375 cells at 0.05 uM by KiNativ Profiling analysis relative to control. Type of experiment: cell-based.
Experiment [10] addresses T3, Tyrosine-protein kinase CSK (Homo sapiens, UniProt P41240). In words: Inhibition of CSK ACT labeling site in human A-375 cells at 5 uM by KiNativ Profiling analysis relative to control. Type of experiment: cell-based.
For experiment [11], the target named is Misshapen-like kinase 1 (Homo sapiens) (UniProt Q8N4C8). Nature of the experiment: Inhibition of ZC3/MINK K2 labeling site in human Huh-7 cells at 10 uM by KiNativ Profiling analysis relative to control. The experiment is classed as cell-based.
The target of experiment [12] is Bone morphogenetic protein receptor type-1A (Homo sapiens) (UniProt P36894). In words: Inhibition of BMPR1A (unknown origin) at 10 uM by Ambit Kinomescan binding assay.
The target in experiment [13] is Calcium/calmodulin-dependent protein kinase type II subunit alpha (Homo sapiens) (UniProt Q9UQM7). In words: Inhibition of CAMK2a K2 labeling site in human Huh-7 cells at 10 uM by KiNativ Profiling analysis relative to control. The experiment is classed as cell-based.
The target of experiment [14] is Insulin receptor (Homo sapiens) (UniProt P06213). Nature of the experiment: Inhibition of INSR (unknown origin) at 10 uM by Ambit Kinomescan binding assay relative to control.
Experiment [15] concerns the target Tyrosine-protein kinase ABL (Homo sapiens) (UniProt P00519+P42684). Nature of the experiment: Inhibition of ABL1/2 ACT labeling site in human Huh-7 cells at 10 uM by KiNativ Profiling analysis relative to control. Type of experiment: cell-based.
Experiment [16] concerns the target T3, Tyrosine-protein kinase CSK. Nature of the experiment: Inhibition of CSK ACT labeling site harbouring VSDFGLTKEASSTQDTGK in human A-375 cells at 5 uM by KiNativ Profiling analysis relative to control. The experiment is classed as cell-based.
The target of experiment [17] is T4, Serine/threonine-protein kinase Sgk3 (Homo sapiens) (UniProt Q96BR1).
T4 sequence (whole entry): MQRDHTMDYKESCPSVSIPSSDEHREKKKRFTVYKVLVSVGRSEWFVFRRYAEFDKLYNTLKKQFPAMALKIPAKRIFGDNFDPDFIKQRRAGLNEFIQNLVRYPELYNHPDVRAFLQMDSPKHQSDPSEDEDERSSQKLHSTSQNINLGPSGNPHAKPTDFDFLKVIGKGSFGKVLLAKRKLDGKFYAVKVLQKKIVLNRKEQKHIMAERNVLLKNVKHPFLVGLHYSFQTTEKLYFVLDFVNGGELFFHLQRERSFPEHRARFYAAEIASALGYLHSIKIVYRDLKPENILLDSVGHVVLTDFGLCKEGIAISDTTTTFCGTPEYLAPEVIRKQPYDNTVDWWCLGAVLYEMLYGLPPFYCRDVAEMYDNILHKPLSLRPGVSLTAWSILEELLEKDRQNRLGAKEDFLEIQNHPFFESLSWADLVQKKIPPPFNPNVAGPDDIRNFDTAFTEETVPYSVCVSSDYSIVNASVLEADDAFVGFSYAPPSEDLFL
Nature of the experiment: Inhibition of SGK3 Lys1 labeling site in human A-375 cells at 0.5 uM by KiNativ Profiling analysis relative to control. The experiment is classed as cell-based.

T3 sequence (P41240 2-450 limits assumed): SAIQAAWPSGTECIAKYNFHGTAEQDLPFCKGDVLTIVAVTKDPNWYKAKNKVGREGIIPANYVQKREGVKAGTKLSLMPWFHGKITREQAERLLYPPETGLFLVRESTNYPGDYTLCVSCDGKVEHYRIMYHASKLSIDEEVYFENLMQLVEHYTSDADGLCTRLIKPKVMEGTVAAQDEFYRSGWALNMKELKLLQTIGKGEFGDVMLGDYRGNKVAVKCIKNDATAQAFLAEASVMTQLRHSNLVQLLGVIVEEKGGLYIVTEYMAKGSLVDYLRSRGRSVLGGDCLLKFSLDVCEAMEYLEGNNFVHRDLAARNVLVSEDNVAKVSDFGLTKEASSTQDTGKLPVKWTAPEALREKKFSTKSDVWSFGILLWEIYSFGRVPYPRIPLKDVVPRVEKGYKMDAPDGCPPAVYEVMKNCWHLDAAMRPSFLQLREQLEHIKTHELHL
Serine/threonine-protein kinase tousled-like 2 (Homo sapiens), sequence (Q86UE8 whole entry, looked up, canonical isoform): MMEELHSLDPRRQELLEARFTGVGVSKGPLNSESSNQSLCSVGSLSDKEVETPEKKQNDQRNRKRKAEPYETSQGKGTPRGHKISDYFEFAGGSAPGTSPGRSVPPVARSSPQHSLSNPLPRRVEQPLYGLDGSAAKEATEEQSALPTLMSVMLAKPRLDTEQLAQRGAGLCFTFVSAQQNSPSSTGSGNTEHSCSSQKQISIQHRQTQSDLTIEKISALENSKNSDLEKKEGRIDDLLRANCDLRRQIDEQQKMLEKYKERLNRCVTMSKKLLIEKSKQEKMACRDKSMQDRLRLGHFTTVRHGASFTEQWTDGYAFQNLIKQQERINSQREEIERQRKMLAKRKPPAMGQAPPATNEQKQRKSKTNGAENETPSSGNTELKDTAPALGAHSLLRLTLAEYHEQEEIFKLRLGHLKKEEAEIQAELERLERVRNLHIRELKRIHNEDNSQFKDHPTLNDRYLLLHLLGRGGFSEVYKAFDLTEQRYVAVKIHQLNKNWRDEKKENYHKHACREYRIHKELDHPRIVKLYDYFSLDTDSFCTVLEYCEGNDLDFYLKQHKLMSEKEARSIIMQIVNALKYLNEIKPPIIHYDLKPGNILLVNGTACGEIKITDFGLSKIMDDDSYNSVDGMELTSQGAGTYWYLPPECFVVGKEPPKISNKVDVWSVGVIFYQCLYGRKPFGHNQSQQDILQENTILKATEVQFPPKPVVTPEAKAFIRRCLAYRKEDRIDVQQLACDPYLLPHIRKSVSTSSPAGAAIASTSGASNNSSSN
Phosphatidylinositol 4,5-bisphosphate 3-kinase catalytic subunit beta isoform (Homo sapiens), sequence (P42338 whole entry, looked up, canonical isoform): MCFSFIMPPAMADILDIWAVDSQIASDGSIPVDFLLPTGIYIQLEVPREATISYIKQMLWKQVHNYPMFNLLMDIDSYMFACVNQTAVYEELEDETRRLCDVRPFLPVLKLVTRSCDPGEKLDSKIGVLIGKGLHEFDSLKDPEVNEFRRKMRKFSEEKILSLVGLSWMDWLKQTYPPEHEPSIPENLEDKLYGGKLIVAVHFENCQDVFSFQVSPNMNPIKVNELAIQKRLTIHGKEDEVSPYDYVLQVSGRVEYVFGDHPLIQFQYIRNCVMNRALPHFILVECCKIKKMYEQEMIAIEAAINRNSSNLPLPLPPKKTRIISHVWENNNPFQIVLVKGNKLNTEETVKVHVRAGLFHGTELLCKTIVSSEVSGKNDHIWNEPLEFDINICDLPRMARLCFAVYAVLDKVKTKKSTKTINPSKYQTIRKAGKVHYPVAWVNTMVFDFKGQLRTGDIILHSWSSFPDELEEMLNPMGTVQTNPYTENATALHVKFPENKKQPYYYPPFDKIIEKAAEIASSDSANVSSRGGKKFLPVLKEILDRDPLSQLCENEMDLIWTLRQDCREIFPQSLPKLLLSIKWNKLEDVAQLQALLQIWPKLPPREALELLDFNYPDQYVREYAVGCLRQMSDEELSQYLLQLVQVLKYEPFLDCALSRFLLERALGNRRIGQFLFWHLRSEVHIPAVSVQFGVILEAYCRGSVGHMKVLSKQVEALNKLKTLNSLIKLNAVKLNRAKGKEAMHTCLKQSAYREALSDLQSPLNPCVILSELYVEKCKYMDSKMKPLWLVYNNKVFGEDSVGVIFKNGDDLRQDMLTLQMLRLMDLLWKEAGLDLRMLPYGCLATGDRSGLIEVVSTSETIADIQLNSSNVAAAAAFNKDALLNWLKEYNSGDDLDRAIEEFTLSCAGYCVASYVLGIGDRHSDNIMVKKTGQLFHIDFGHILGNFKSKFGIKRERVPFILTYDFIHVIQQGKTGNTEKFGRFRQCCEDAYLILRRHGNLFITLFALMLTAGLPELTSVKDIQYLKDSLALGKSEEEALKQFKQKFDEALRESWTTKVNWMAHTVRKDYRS
Activated CDC42 kinase 1 (Homo sapiens), sequence (Q07912 whole entry, looked up): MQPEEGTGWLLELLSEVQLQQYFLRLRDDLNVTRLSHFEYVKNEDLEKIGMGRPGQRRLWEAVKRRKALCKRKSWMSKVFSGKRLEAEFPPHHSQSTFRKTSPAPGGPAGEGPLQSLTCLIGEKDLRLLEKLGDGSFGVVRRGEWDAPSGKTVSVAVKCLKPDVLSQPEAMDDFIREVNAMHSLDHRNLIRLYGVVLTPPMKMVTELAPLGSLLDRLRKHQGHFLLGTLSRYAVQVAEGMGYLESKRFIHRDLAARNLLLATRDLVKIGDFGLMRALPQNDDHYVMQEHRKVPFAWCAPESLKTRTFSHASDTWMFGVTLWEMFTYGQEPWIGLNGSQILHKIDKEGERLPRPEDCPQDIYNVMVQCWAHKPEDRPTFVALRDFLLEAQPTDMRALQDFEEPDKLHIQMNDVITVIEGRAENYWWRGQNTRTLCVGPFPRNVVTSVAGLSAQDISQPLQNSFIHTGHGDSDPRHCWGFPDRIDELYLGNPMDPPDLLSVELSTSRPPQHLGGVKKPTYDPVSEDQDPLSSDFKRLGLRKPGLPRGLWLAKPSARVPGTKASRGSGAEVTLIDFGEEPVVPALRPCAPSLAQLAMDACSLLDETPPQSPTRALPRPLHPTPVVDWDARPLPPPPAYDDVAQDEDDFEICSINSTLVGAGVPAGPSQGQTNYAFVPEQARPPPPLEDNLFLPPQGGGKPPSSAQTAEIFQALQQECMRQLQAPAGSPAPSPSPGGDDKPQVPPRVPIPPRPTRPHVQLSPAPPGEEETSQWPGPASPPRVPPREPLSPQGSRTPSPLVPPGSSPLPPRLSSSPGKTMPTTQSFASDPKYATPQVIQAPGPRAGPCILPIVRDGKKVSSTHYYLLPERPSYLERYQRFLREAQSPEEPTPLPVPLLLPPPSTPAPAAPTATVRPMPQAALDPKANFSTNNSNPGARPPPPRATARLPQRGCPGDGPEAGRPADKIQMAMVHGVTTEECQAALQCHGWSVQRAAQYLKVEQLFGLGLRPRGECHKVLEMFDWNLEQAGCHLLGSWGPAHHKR

In the case of `CNc1cc(Oc2cc(C(=O)Nc3cc(N4CCN(C)CC4)cc(C(F)(F)F)c3)ccc2C)ncn1`, the inhibition in [1] was -5.4%; in experiment [2], -1.3%; in experiment [3], 14%; in [4], 0.5%.
`CCN1CCN(Cc2ccc(NC(=O)c3ccc(C)c(/C=C/c4cnc5[nH]ccc5c4OC)c3)cc2C(F)(F)F)CC1`: the inhibition in experiment [5] is 5.4%; in experiment [6] it was 76%; in [7] it was 100%; in experiment [8] it was 26.6%; in experiment [9], -10%.
Take `CCN1CCN(Cc2ccc(NC(=O)c3ccc(C)c(Oc4ccnc5[nH]ccc45)c3)cc2C(F)(F)F)CC1`: the inhibition in experiment [10] was 57.7%; in experiment [11], 72.6%; in experiment [13], 6.2%; in experiment [14], 30%; in experiment [15], 98.4%; in experiment [16], 79%. For the same molecule, in [17], the inhibition is -9.6%. Moreover, the inhibition result in experiment [12] is “inactive”.
